PubChem BioAssay AID252 (DTP/NCI, 2004)
Inconclusive results and toxic doses are left out. How the source made its calls: active means survival T/C of 150% or more; inactive means T/C below 125% in these data.

Test system: BDF1 mice, intracerebral L1210 leukemia, survival T/C
Test: NCI In Vivo Anticancer Drug Screen. Data for tumor model L1210 Leukemia (intracerebral) in B6D2F1 (BDF1) mice
Details: endpoint: mean survival time, schedule: Q01DX001 (ip), vehicle: carboxymethylcellulose (CMC), higher = longer survival
Outline: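 Transplantable tumour-bearing mice, compound-treated vs vehicle controls; read-out survival, reported as T/C ratio.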

Measured: T/C

CN(N=O)C(=O)NCCCCNC(=O)N(C)N=O
inactive: dose: 250.0 mg/kg/injection 103 % of control | dose: 300.0 mg/kg/injection 110 % of control | dose: 500.0 mg/kg/injection 102 % of control | dose: 750.0 mg/kg/injection 110 % of control
